Data taken from paper PMC6930638, “The Masked Polar Group Incorporation (MPGI) Strategy in Drug Design: Effects of Nitrogen Substitutions on Combretastatin and Isocombretastatin Tubulin Inhibitors” (Molecules, 2019).
pIC50: −log10 of the molar value. Values after ≈ are worked out from the molar mass of the structure shown. Read-outs that look alike come from different tables or passages of the source.

Key:
[1] = tested on: MCF-7 breast adenocarcinoma; assay: MTT cell antiproliferative assay, MCF-7; format: cell-based; settings: Homo sapiens, MCF7, 72 h
Experimental: (§1) The in vitro antiproliferative activity of the synthesized compounds was evaluated by a colorimetric reaction, using the MTT reagent. They were tested against three different human tumor cell lines: HeLa cervix epithelioid carcinoma, HT-29 colon adenocarcinoma, and MCF-7 breast adenocarcinoma. […] Moving the alkylamino substituent from a para to a meta position with respect to the bridge results in potency reduction, except for the phenstatin analogue 1f. However, the introduction of a nitrogen atom to form 2-dimethylaminopyridine derivatives entails a loss of activity, both for phenstatin analogues (1b, 2b), while for isocombretastatins, it only involves a 2–3 times potency decrease (3b). For combretastatins, it implies an improvement in the cytotoxicity values down to tenths of nanomolar (8b). […] On the other hand, the best 2-dimethylaminopyridine was combretastatin 8b. All ammonium salts derivatives were not cytotoxic at micromolar concentrations.
(§2) HeLa (human cervical carcinoma) and MCF-7 (human breast carcinoma) cell lines were cultured in Dulbecco’s Modified Eagles Medium (DMEM) supplemented with 2 mM L-glutamine (Lonza-Cambrex, Karlskoga, Sweden), 10% (v/v) heat inactivated fetal bovine serum (HIFBS) (Lonza-Cambrex) and 100 μg/mL streptomycin-100 IU/mL penicillin (Lonza-Cambrex) at 37 °C in humidified 95% air and 5% CO2. HT-29 (human colon carcinoma) cells were cultured at 37 °C in complete RPMI 1640 medium containing 2 mM L-glutamine, 10% (v/v) HIFBS and 100 μg/mL streptomycin-100 IU/mL penicillin in humidified 95% air and 5% CO2 atmosphere.
(§3) The effect of the different compounds on the proliferation of human cell lines was determined by using the MTT (3-[4,5-dimethylthiazol-2-yl]-2,5-diphenyltetrazolium bromide) reagent (MTT Thiazolyl Blue Tetrazolium Bromide, Sigma-Aldrich, St. Louis, MO, USA) dissolved in PBS 5 mg/mL. Cell viability was evaluated seeding 100 µL of cells in exponential growth phase with appropriate cell line concentration (1.5 × 10^4 HeLa and MCF-7 cells/mL and 3 × 10^4 HT-29 cells/mL) in complete medium in 96-well plates at 37 °C and 5% CO2. After 24 h incubation to allow cells to attach to the plates the ligands were added at different concentrations from 10^−5 to 10^−9 M. The effect on the proliferation was evaluated 72 h post-treatment by adding the MTT reagent (10 µL/well) to a final concentration of 0.5 mg/mL and the plate was further incubated for another 3 h. After this period, the supernatant was removed, the MTT violet crystals formed on the bottom of each well were dissolved in DMSO (100 µL/well) and subsequently, the absorbance of the color complex was read at 570 nm using a multi-well plate reader. Compounds were dissolved in dimethyl sulfoxide (DMSO) and the final solvent concentrations never exceeded 0.5% (v/v). The control wells included treated cells with 0.5% (v/v) DMSO and the positive control. Measurements were performed in triplicate, and each experiment was repeated three times. […] Nonlinear curves fitting the experimental data were carried out for each compound.

[2] = tested on: HeLa cervix epithelioid carcinoma; assay: MTT cell antiproliferative assay, HeLa; format: cell-based; settings: Homo sapiens, 72 h
Experimental: as §1, §2, §3

[3] = tested on: Bovine brain microtubule protein (MTP); assay: Tubulin polymerization inhibition assay (turbidimetry); format: biochemical; settings: 1.5 mg/mL MTP; IC50 calculated only if more than 50% inhibition at 20 µM; read-out: TPI IC50
Experimental: Bovine brain microtubule protein (MTP) was isolated as previously described. Briefly, it was purified according to the modified Shelanski method by two cycles of temperature-dependent assembly/disassembly.
Tubulin polymerization was monitored using a Helios α spectrophotometer by measuring the increase in turbidity at 450 nm, caused by a shift from 4 °C to 37 °C, which allows the in vitro MTP self-disassembly and assembly respectively. […] Firstly, ligands at 20 µM concentration, were incubated with 1.5 mg/mL MTP at 20 °C for 30 min and subsequently cooled on ice for 10 min. Then, the experiment starts at 4 °C to establish the initial baseline. The assembly process was initiated by shifting of the temperature to 37 °C and the turbidity produced can be measured by an absorbance increase. After reaching a stable plateau, the temperature was switched back to 4 °C to return to the initial absorption values. The difference in amplitude between the stable plateau and the initial baseline of the curves was taken as the degree of tubulin polymerization for each experiment. […] All the measurements were carried out in at least two independent experiments using MTP from different isolation.

[4] = Aqueous solubility determination (shake flask, UV); format: physicochemical; settings: thermodynamic from solid, phosphate buffer pH 7.0, 48 h stirring, filtered, UV, read-out: Solub.
Experimental: One of the expected effects of introducing nitrogen substitutions on combretastatin and isocombretastatin analogues, is an increase in aqueous solubility. Solubility was spectrophotometrically determined in phosphate buffer at pH 7. UV absorbance of soluble compounds was measured after shaking and microfiltration. […] In addition, aqueous solubilities of the corresponding ammonium salts are over 1 mg/mL.
This great improvement is probably due to the symmetry reduction, combined with an increased polarity for 2g.
Compounds were stirred in a solution of phosphate buffer at pH 7.0 (1–2 mg of compound in 300 µL of buffer) during 48 h. After that, the samples were filtered over a […] filter to discard the insoluble residues. In order to determine the maximum wavelength of absorbance for each compound, a scan between 270 and 400 nm was performed. Once the wavelength was selected, a calibration line was performed and the concentration of the stirred and filtered samples was measured.

[5] = tested on: HeLa, HT-29 and MCF-7 human tumor cell lines; assay: Antiproliferative activity over the three human tumor cell lines (MTT); format: cell-based; settings: Homo sapiens, read-out: Cytotoxicity range (range of antiproliferative IC50 values)
Experimental: as §1
The antiproliferative activity of the compounds against three human tumor cell lines of different origins (i.e., HeLa cervix epithelioid carcinoma, HT-29 colon adenocarcinoma and MCF-7 breast adenocarcinoma) was evaluated by the MTT method. […] This high success rate is the result of a combination of favorable scaffolds and substituents, and it is similar to those of previous reports on related series. […] We have previously observed the same trend for related compounds acting at the colchicine site of tubulin [10, 23]. For this pyridine series, we observed a different potency trend when we compare the 4-amino-3-pyridine and the 3-amino-4-pyridine derivatives. […] This different behavior is probably a reflection of their different shape, combined with the different geometries imposed by different bridges. We have previously shown that the potency ordering isocombretastatins similar to oximes higher than benzophenones could be explained by the higher conjugation of the ketones with the aromatic rings, which imposes a more planar disposition than those required for high affinity colchicine site binding. For the 3-amino-4-pyridine series, more planar structures are required in order to avoid the bumping of the amino substituents with tubulin out the plane of the aromatic ring, an effect which we have previously shown to impact the potency of 3-substituted indolecombretastatins and dimethylaminophenyl phenstatins. This different geometrical disposition of the amino substituents, and the different adaptability of their corresponding pockets in the two series, can also account for the preference of bulkier substituents at position 3, such as the pyrrolidine rather than the smaller dimethylamino. […] The opposite is observed for the 4-dimethylaminophenyl phenstatins 1a and 1b. […] The remarkable levels of solubility achieved for the quaternary ammonium salts came unfortunately at the expenses of biological activity.
The effect of the different compounds on the proliferation of human cell lines was determined by using the MTT (3-[4,5-dimethylthiazol-2-yl]-2,5-diphenyltetrazolium bromide) reagent (MTT Thiazolyl Blue Tetrazolium Bromide, Sigma-Aldrich, St. Louis, MO, USA) dissolved in PBS 5 mg/mL. Cell viability was evaluated seeding 100 µL of cells in exponential growth phase with appropriate cell line concentration (1.5 × 10^4 HeLa and MCF-7 cells/mL and 3 × 10^4 HT-29 cells/mL) in complete medium in 96-well plates at 37 °C and 5% CO2. After 24 h incubation to allow cells to attach to the plates the ligands were added at different concentrations from 10^−5 to 10^−9 M. The effect on the proliferation was evaluated 72 h post-treatment by adding the MTT reagent (10 µL/well) to a final concentration of 0.5 mg/mL and the plate was further incubated for another 3 h. […]

[6] = tested on: HT-29 colon adenocarcinoma; assay: MTT cell antiproliferative assay, HT-29 (without or with verapamil); format: cell-based, human; settings: for pIC50: Homo sapiens, HT-29, MTT, 72 h
Experimental: as §1
As observed in Table 1, there are no significant changes in the IC50 values for most compounds, except for combretastatins 8a and 8i.
Acquired resistance to antitumor drugs is one of the more important problems of chemotherapy, also affecting tubulin-targeting drugs. In order to ascertain the impact of multidrug resistance phenotypes on the action of the compounds, we have measured the cell proliferation inhibitory activity of HT-29 cells in the presence of verapamil, a known P-glycoprotein 1/multidrug resistance protein 1 (MDR1) inhibitor at a concentration of 10 µM, not affecting cell proliferation. […] Except for the combretastatin analogues 8a and 8i, the affected drugs are all pyridine drugs.
as §2, §3

[7] = phosphate buffer, pH 7, aqueous buffer
[8] = range over the cell lines, Table S1

| pIC50 [1] | pIC50 [2] | pIC50 [3] | solubility at 48 h [4, 7] | pIC50 [6] | improvement of HT-29 IC50 after verapamil treatment ([6]; 10 µM verapamil) | Structure (SMILES) | pIC50 [5, 8] | solubility at 48 h ([4]; aqueous buffer) | pIC50 [5] | pIC50 ([5]; range over the cell lines, Table S1, heading: Cytotoxicity range) |
| --- | --- | --- | --- | --- | --- | --- | --- | --- | --- | --- |
| < 6.00 | < 6.00 | < 4.70 | 10.5 µg/mL (≈ 33.2 µM) | – | – | COc1cc(C(=O)c2ccc(N(C)C)nc2)cc(OC)c1OC [Compound 1b, (6-(Dimethylamino)pyridin-3-yl)(3,4,5-trimethoxyphenyl)methanone] | < 6.00 | – | – | – |
| 6.56 | 6.43 | < 4.70 | – | 6.49 | – | COc1ccc(C(=NO)c2ccc(N(C)C)cc2)c(OC)c1OC [Compound 2d, (4-(Dimethylamino)phenyl)(2,3,4-trimethoxyphenyl)methanone oxime] | – | – | – | – |
| < 6.00 | < 6.00 | < 4.70 | 4400 µg/mL | – | – | COc1ccc(C(=O)c2ccc([N+](C)(C)C)cc2)c(OC)c1OC.[I-] [Compound 5d, N,N,N-Trimethyl-4-(2,3,4-trimethoxybenzoyl)benzenaminium iodide] | < 6.00 | – | – | – |
| < 6.00 | < 6.00 | < 4.70 | > 5000 µg/mL | – | – | COc1ccc(OC)c(C(=O)c2ccc([N+](C)(C)C)cc2)c1.[I-] [Compound 5e, 4-(2,5-Dimethoxybenzoyl)-N,N,N-trimethylbenzenaminium iodide] | < 6.00 | – | – | – |
| < 6.00 | < 6.00 | < 4.70 | 1000 µg/mL | – | – | C=C(c1ccc([N+](C)(C)C)cc1)c1ccc(OC)c(OC)c1OC.[I-] [Compound 7d, N,N,N-Trimethyl-4-(1-(2,3,4-trimethoxyphenyl)vinyl)benzenaminium iodide] | – | – | – | < 6.00 |
| < 6.00 | < 6.00 | < 4.70 | 679 µg/mL | – | – | COc1cc(C=Cc2ccc([N+](C)(C)C)nc2)cc(OC)c1OC.[I-] [Compound 9b, N,N,N-trimethyl-5-(3,4,5-trimethoxystyryl)pyridin-2-aminium iodide] | – | – | – | – |

The next lines start with the molecule.

| Structure (SMILES) | pIC50 [1] | pIC50 [2] | pIC50 [3] | solubility at 48 h [4, 7] | pIC50 [6] | improvement of HT-29 IC50 after verapamil treatment ([6]; 10 µM verapamil) | pIC50 [5, 8] | solubility at 48 h ([4]; aqueous buffer) | pIC50 [5] | pIC50 ([5]; range over the cell lines, Table S1, heading: Cytotoxicity range) |
| --- | --- | --- | --- | --- | --- | --- | --- | --- | --- | --- |
| COc1cc(C(=NO)c2cccc(N(C)C)c2)cc(OC)c1OC [Compound 2f, (3-(Dimethylamino)phenyl)(3,4,5-trimethoxyphenyl)methanone oxime] | < 6.00 | < 6.00 | < 4.70 | 153 µg/mL (≈ 463 µM) | – | – | – | – | – | – |
| C=C(c1ccc(N2CCCC2)nc1)c1cc(OC)c(OC)c(OC)c1 [Compound 3c, 2-(Pyrrolidin-1-yl)-5-(1-(3,4,5-trimethoxyphenyl)vinyl)pyridine] | – | 6.28 | < 4.70 | – | 6.42 | – | 6.28 to 6.85 | – | – | – |
| C=C(c1cccc(N(C)C)c1)c1cc(OC)c(OC)c(OC)c1 [Compound 3f, N,N-Dimethyl-3-(1-(3,4,5-trimethoxyphenyl)vinyl)aniline] | < 6.00 | < 6.00 | < 4.70 | – | – | – | < 6.00 | 21 µg/mL (≈ 67 µM) | – | – |
| COc1cc(C(=NO)c2ccc([N+](C)(C)C)cc2)cc(OC)c1OC.[I-] [Compound 6a, 4-((Hydroxyimino)(3,4,5-trimethoxyphenyl)methyl)-N,N,N-trimethylbenzenaminium iodide] | < 6.00 | < 6.00 | < 4.70 | – | – | – | – | 1500 µg/mL | – | – |
| C=C(c1ccc([N+](C)(C)C)cc1)c1cc(OC)c(OC)c(OC)c1.[I-] [Compound 7a, N,N,N-trimethyl-4-(1-(3,4,5-trimethoxyphenyl)vinyl)benzenaminium iodide] | < 6.00 | < 6.00 | < 4.70 | – | – | – | – | 2500 µg/mL | < 6.00 | – |
| COc1cc(C=Cc2ccnc(N3CCCC3)c2)cc(OC)c1OC [Compound 8h, 2-(Pyrrolidin-1-yl)-4-(3,4,5-trimethoxystyryl)pyridine] | < 6.00 | < 6.00 | < 4.70 | 65 µg/mL (≈ 191 µM) | – | – | < 6.00 | – | – | – |
| COc1cc(C=Cc2ccc(N3CCCC3)cc2)cc(OC)c1OC [Compound 8i, 1-(4-(3,4,5-Trimethoxystyryl)phenyl)pyrrolidine] | 6.85 | 6.61 | – | – | 6.37 | > 2 fold | – | – | – | – |
